Data reported in patent publication US9388189B2, “Pyrrolotriazinone derivatives as PI3K inhibitors” (ALMIRALL, S.A., priority 2012, dated 2016).

Biological target: PI3Kδ (PI3Kd) (Homo sapiens (Human), UniProt O00329)
Assay: PI3K HTRF enzymatic inhibition assay (cell-free), delta isoform
Details: read-out: IC50 PI3Kd HTRF; recombinant PI3K delta, [ATP] 15 μM, [PIP2] 2 μM, 30 min preincubation
Excerpt: Compounds were screened for their ability to inhibit PI3Kα (PI3Ka), PI3Kβ (PI3Kb), PI3Kδ (PI3Kd) and PI3Kγ (PI3Kg) using a cell-free based PI3K HTRF™ assay (Millipore, ref. #33-017).
PI-3 Kinase HTRF kit (ref. #33-037) and the different PI3K recombinant isoforms (ref. #14-602, ref. #14-603, ref. #14-604, ref. #15-558 for Alpha, Beta, Delta and Gamma respectively) were purchased at Millipore (expressed in insect cells). ATP was purchased at Sigma Aldrich (ref. #A7699).
The compounds were pre-incubated with the enzyme for 30 min before starting of the catalytic reaction. [PIP2] was used at its Km. […] Time of assay and [Enzyme] were optimized to work in the linear range. Stop and Detection mixtures were used as specified in the Millipore PI-3 Kinase kit.
Reaction time and enzyme concentration in the assay will depend of each batch.
All experiments were analysed using Activity Base software from IDBS and the four-parameter log equation.

PI3Kδ (PI3Kd), sequence (O00329 whole entry, canonical isoform): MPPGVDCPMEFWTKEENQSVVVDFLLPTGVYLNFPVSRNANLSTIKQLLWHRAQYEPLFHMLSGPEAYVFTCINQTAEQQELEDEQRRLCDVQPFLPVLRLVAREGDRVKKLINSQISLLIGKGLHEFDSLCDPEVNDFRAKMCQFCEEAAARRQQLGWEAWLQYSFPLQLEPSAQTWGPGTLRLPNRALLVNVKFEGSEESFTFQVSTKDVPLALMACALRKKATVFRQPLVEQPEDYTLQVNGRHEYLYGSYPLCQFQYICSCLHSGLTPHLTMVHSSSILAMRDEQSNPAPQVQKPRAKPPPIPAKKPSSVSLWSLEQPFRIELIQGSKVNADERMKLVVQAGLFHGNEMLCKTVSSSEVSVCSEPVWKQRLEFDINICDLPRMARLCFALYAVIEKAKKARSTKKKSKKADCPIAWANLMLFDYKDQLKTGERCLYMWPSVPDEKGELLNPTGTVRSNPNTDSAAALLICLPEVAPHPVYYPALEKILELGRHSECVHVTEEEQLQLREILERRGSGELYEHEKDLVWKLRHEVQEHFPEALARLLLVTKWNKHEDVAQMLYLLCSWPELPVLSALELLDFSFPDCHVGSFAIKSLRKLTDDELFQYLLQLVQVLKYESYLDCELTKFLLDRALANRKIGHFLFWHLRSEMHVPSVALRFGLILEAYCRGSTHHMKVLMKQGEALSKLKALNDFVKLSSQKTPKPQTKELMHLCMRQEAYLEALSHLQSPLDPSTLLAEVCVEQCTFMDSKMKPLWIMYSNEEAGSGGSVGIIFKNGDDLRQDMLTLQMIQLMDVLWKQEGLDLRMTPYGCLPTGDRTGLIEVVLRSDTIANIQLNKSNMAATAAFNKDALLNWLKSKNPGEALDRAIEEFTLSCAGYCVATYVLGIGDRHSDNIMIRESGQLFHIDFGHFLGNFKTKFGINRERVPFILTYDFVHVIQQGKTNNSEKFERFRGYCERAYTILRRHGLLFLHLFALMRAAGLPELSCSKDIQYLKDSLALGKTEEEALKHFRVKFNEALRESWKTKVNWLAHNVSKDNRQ
PI3Kδ (PI3Kd), sequence (P27986 whole entry partner, canonical isoform): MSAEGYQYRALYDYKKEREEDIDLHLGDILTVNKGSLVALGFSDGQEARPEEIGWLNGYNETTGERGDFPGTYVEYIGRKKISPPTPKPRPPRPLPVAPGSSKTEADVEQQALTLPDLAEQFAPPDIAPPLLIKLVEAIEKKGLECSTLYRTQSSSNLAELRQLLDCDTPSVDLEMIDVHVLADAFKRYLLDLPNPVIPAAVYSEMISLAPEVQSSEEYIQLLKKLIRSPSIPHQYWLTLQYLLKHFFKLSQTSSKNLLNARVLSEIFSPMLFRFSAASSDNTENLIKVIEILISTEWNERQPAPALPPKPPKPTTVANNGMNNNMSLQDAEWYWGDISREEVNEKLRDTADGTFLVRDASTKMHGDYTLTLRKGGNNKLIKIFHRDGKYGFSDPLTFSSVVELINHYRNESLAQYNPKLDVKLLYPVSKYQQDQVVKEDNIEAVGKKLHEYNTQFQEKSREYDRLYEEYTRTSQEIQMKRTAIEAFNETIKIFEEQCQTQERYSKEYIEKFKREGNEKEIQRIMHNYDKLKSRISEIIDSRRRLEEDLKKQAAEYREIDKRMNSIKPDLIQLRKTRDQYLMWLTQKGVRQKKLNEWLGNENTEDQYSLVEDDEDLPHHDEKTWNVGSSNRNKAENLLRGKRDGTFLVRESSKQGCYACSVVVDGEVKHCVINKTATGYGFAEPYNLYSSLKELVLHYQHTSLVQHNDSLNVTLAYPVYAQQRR

Molecule: Cc1ccn2nc([C@H](C)Nc3ncnc(N)c3-c3ccc(N4CCNCC4)cc3)n(-c3ccccc3)c(=O)c12 [Example 162, (S)-2-(1-((6-Amino-5-(4-(piperazin-1-yl)phenyl)pyrimidin-4-yl)amino)ethyl)-5-methyl-3-phenylpyrrolo[2,1-f][1,2,4]triazin-4(3H)-one]
- IC50: 132 nM

Molecule: Cc1ccn2nc([C@H](C)Nc3ncnc4[nH]cc(-c5ccn(-c6cccc(O)c6)n5)c34)n(-c3ccccc3)c(=O)c12 [Example 163, (S)-2-(1-((5-(1-(3-Hydroxyphenyl)-1H-pyrazol-3-yl)-7H-pyrrolo[2,3-d]pyrimidin-4-yl)amino)ethyl)-5-methyl-3-phenylpyrrolo[2,1-f][1,2,4]triazin-4(3H)-one]
- IC50: 0.2 nM

Molecule: C[C@H](Nc1ncnc2[nH]cc(-c3cc(NS(C)(=O)=O)cc4[nH]ccc34)c12)c1nn2cccc2c(=O)n1-c1ccccc1 [Example 165, (S)—N-(4-(4-((1-(4-Oxo-3-phenyl-3,4-dihydropyrrolo[2,1-f][1,2,4]triazin-2-yl)ethyl)amino)-7H-pyrrolo[2,3-d]pyrimidin-5-yl)-1H-indol-6-yl)methanesulfonamide]
- IC50: 5 nM

Molecule: Cc1ccn2nc([C@H](C)Nc3ncnc(N)c3-c3cccc(C(=O)Nc4cccc(O)c4)c3)n(-c3ccccc3)c(=O)c12 [Example 168, (S)-3-(4-Amino-6-((1-(5-methyl-4-oxo-3-phenyl-3,4-dihydropyrrolo[2,1-f][1,2,4]triazin-2-yl)ethyl)amino)pyrimidin-5-yl)-N-(3-hydroxyphenyl)benzamide]
- IC50: 2 nM

Molecule: Cc1ccn2nc(CNc3ncnc(N)c3-c3cncc(C(F)F)c3)n(-c3ccccc3)c(=O)c12 [Example 169, 2-(((6-Amino-5-(5-(difluoromethyl)pyridin-3-yl)pyrimidin-4-yl)amino)methyl)-5-methyl-3-phenylpyrrolo[2,1-f][1,2,4]triazin-4(3H)-one]
- IC50: 3 nM

Molecule: Cc1ccn2nc([C@H](C)Nc3ncnc(N)c3-c3cc(O)c4ccn(S(=O)(=O)c5ccc(O)cc5F)c4c3)n(-c3ccccc3)c(=O)c12 [Example 171, (S)-2-(1-((6-Amino-5-(1-((2-fluoro-4-hydroxyphenyl)sulfonyl)-4-hydroxy-1H-indol-6-yl)pyrimidin-4-yl)amino)ethyl)-5-methyl-3-phenylpyrrolo[2,1-f][1,2,4]triazin-4(3H)-one]
- IC50: 5 nM

Molecule: Cc1ccn2nc([C@H](C)Nc3ncnc4[nH]cc(-c5cc(O)cc(NC(N)=O)c5)c34)n(-c3ccccc3)c(=O)c12 [Example 175, (S)-1-(3-Hydroxy-5-(4-((1-(5-methyl-4-oxo-3-phenyl-3,4-dihydropyrrolo[2,1-f][1,2,4]triazin-2-yl)ethyl)amino)-7H-pyrrolo[2,3-d]pyrimidin-5-yl)phenyl)urea]
- IC50: 0.3 nM

Molecule: C[C@H](Nc1ncnc2[nH]cc(-c3cc(NS(C)(=O)=O)cc(OS(C)(=O)=O)c3)c12)c1nn2cccc2c(=O)n1-c1ccccc1 [Example 176, (S)-3-(Methylsulfonamido)-5-(4-((1-(4-oxo-3-phenyl-3,4-dihydropyrrolo[2,1-f][1,2,4]triazin-2-yl)ethyl)amino)-7H-pyrrolo[2,3-d]pyrimidin-5-yl)phenyl methanesulfonate]
- IC50: 1 nM

Molecule: Cc1ccn2nc([C@H](C)Nc3ncnc4[nH]cc(-c5cc(NS(C)(=O)=O)cc6[nH]ncc56)c34)n(-c3ccccc3)c(=O)c12 [Example 181, (S)—N-(4-(4-((1-(5-Methyl-4-oxo-3-phenyl-3,4-dihydropyrrolo[2,1-f][1,2,4]triazin-2-yl)ethyl)amino)-7H-pyrrolo[2,3-d]pyrimidin-5-yl)-1H-indazol-6-yl)methanesulfonamide]
- IC50: 5 nM

Molecule: CCOc1ncc(-c2c(N)ncnc2N[C@@H](C)c2nn3ccc(C)c3c(=O)n2-c2ccccc2)cc1NS(=O)(=O)c1ccc(O)cc1 [Example 187, (S)—N-(5-(4-Amino-6-((1-(5-methyl-4-oxo-3-phenyl-3,4-dihydropyrrolo[2,1-f][1,2,4]triazin-2-yl)ethyl)amino)pyrimidin-5-yl)-2-ethoxypyridin-3-yl)-4-hydroxybenzenesulfonamide]
- IC50: 0.7 nM

Molecule: Cc1nnc(-c2cccc(-c3c[nH]c4ncnc(N[C@@H](C)c5nn6ccc(C)c6c(=O)n5-c5ccccc5)c34)c2)o1 [Example 188, (S)-5-Methyl-2-(1-((5-(3-(5-methyl-1,3,4-oxadiazol-2-yl)phenyl)-7H-pyrrolo[2,3-d]pyrimidin-4-yl)amino)ethyl)-3-phenylpyrrolo[2,1-f][1,2,4]triazin-4(3H)-one]
- IC50: 0.4 nM

Molecule: Cc1ccn2nc([C@H](C)Nc3ncnc(N)c3C(=O)Oc3cc(O)cc(NS(C)(=O)=O)c3)n(-c3ccccc3)c(=O)c12 [Example 195, (S)-3-Hydroxy-5-(methylsulfonamido)phenyl 4-amino-6-((1-(5-methyl-4-oxo-3-phenyl-3,4-dihydropyrrolo[2,1-f][1,2,4]triazin-2-yl)ethyl)amino)pyrimidine-5-carboxylate]
- IC50: 0.2 nM

Molecule: COc1ccc(S(=O)(=O)n2ccc3ccc(-c4c(N)ncnc4N[C@@H](C)c4nn5ccc(C)c5c(=O)n4-c4ccccc4)cc32)cc1 [Example 199, (S)-2-(1-((6-Amino-5-(1-((4-methoxyphenyl)sulfonyl)-1H-indol-6-yl)pyrimidin-4-yl)amino)ethyl)-5-methyl-3-phenylpyrrolo[2,1-f][1,2,4]triazin-4(3H)-one]
- IC50: 3 nM

Molecule: Cc1ccn2nc([C@H](C)Nc3ncnc4[nH]cc(-c5cc(NS(C)(=O)=O)c6cc[nH]c6c5)c34)n(-c3ccccc3)c(=O)c12 [Example 209, (S)—N-(6-(4-((1-(5-Methyl-4-oxo-3-phenyl-3,4-dihydropyrrolo[2,1-f][1,2,4]triazin-2-yl)ethyl)amino)-7H-pyrrolo[2,3-d]pyrimidin-5-yl)-1H-indol-4-yl)methanesulfonamide]
- IC50: 0.2 nM

Molecule: CCNc1ncc(-c2c(N)ncnc2N[C@@H](C)c2nn3ccc(C)c3c(=O)n2-c2ccccc2)cc1NS(=O)(=O)c1ccc(O)cc1 [Example 218, (S)—N-(5-(4-Amino-6-((1-(5-methyl-4-oxo-3-phenyl-3,4-dihydropyrrolo[2,1-f][1,2,4]triazin-2-yl)ethyl)amino)pyrimidin-5-yl)-2-(ethylamino)pyridin-3-yl)-4-hydroxybenzenesulfonamide]
- IC50: 5 nM

Molecule: Cc1ccn2nc([C@H](C)Nc3ncnc4[nH]cc(-c5cc(NS(C)(=O)=O)cc(C(=O)N(C)C)c5)c34)n(-c3ccccc3)c(=O)c12 [Example 219, (S)—N,N-dimethyl-3-(4-((1-(5-methyl-4-oxo-3-phenyl-3,4-dihydropyrrolo[2,1-f][1,2,4]triazin-2-yl)ethyl)amino)-7H-pyrrolo[2,3-d]pyrimidin-5-yl)-5-(methylsulfonamido)benzamide]
- IC50: 0.3 nM

Molecule: Cc1ccn2nc([C@H](C)Nc3ncnc4[nH]cc(-c5ccnc(N6CCC(N(C)C)CC6)c5)c34)n(-c3ccccc3)c(=O)c12 [Example 225, (S)-2-(1-((5-(2-(4-(Dimethylamino)piperidin-1-yl)pyridin-4-yl)-7H-pyrrolo[2,3-d]pyrimidin-4-yl)amino)ethyl)-5-methyl-3-phenylpyrrolo[2,1-f][1,2,4]triazin-4(3H)-one]
- IC50: 0.4 nM

Molecule: Cc1ccn2nc([C@H](C)Nc3ncnc4[nH]cc(-c5ccc(NS(=O)(=O)N(C)C)cc5O)c34)n(-c3ccccc3)c(=O)c12 [Example 239, N′-[3-Hydroxy-4-(4-{[(1S)-1-(5-methyl-4-oxo-3-phenyl-3,4-dihydropyrrolo[2,1-f][1,2,4]triazin-2-yl)ethyl]amino}-7H-pyrrolo[2,3-d]pyrimidin-5-yl)phenyl]-N,N-dimethylsulfamide]
- IC50: 2 nM

Molecule: (S)—N-(6-(4-Amino-6-((1-(5-methyl-4-oxo-3-phenyl-3,4-dihydropyrrolo[2,1-f][1,2,4]triazin-2-yl)ethyl)amino)pyrimidin-5-yl)-1H-indol-4-yl)-4-hydroxybenzenesulfonamide [Example 190]
- IC50: 0.8 nM

Molecule: (S)—N-((1H-Pyrazol-4-yl)ethyl)-4-((1-(5-methyl-4-oxo-3-phenyl-3,4-dihydropyrrolo[2,1-f][1,2,4]triazin-2-yl)ethyl)amino)-7H-pyrrolo[2,3-d]pyrimidine-5-carboxamide [Example 88]
- IC50: 41 nM
